Values quoted from earlier work, collected in article PMC7150867, “Molecular Imaging of Galectin-1 Expression as a Biomarker of Papillary Thyroid Cancer by Using Peptide-Functionalized Imaging Probes” (Biology, 2020).

Text: To validate the effectiveness of gal-1-targeted peptides, another type of probe and therefore imaging of thyroid cancer was explored. Owing to its high sensitivity, in the order of nanomolar, resolution in the range of 50–130 µm, and nonionizing radiation, FLI appears as a promising imaging technique in the field of biomedical research and clinical diagnosis of a wide range of pathologies. In oncology, FLI enables early diagnosis and the depiction of the extent of cancer invasion, improving the accuracy of tumor resection.

For “YSWHIDIVAPRN [Peptide P7, gal-1-targeted 12-mer linear peptide identified by phage display]”, the LogP is given as 1.02 and the LogD7.4 (pH 7.4) is given as −7.63.
